Source: patent US20260013501A1, “HERBICIDAL DERIVATIVES” (SYNGENTA CROP PROTECTION AG, priority 2022, published 2026)

Experiments:
Type in all cases: in vivo
Settings in all cases: evaluated after 13 days
[1] = tested on: Zea mays (ZEAMX); assay: Pre-emergence Test (Table B1), ZEAMX
[2] = tested on: Amaranthus retoflexus (AMARE); assay: Pre-emergence Test (Table B1), AMARE
[3] = tested on: Echinochloa crus-galli (ECHCG); assay: Pre-emergence Test (Table B1), ECHCG
[4] = tested on: Amaranthus palmeri (AMAPA); assay: Pre-emergence Test (Table B1), AMAPA
[5] = tested on: Ipomoea hederacea (IPOHE); assay: Pre-emergence Test (Table B1), IPOHE
[6] = tested on: Echinochloa crus-galli (ECHCG); assay: Post-emergence Test (Table B2), ECHCG; design: key: 5-point damage scale: 5=81-100%, 4=61-80%, 3=41-60%, 2=21-40%, 1=0-20%
Protocol: (§1) Seeds of a variety of test species are sown in standard soil in pots (Ipomoea hederacea (IPOHE), Zea mays (ZEAMX), Echinochloa crus-galli (ECHCG), Amaranthus palmeri (AMAPA), (Amaranthus retoflexus (AMARE), and (Setaria faberi (SETFA)). After 8 days cultivation under controlled conditions in a glasshouse (at 24° C./16° C., day/night; 14 hours light; 65% humidity), the plants are sprayed with an aqueous spray solution derived from the formulation of the technical active ingredient in acetone/water (50:50) solution containing 0.5% Tween 20 (polyoxyethelyene sorbitan monolaurate, CAS RN 9005-64-5). Rate of application is shown in g/ha in the tables below. The test plants are then grown in a glasshouse under controlled conditions in a glasshouse (at 24° C./16° C., day/night; 14 hours light; 65% humidity) and watered twice daily. After 13 days the test is evaluated for the percentage damage caused to the plant. The biological activities are shown in the following table on a five-point scale (5=81-100%; 4=61-80%; 3=41-60%; 2=21-40%; 1=0-20%; -=not tested).

[7] = tested on: Amaranthus retoflexus (AMARE); assay: Post-emergence Test (Table B2), AMARE; design: key: five-point scale: 5=81-100%, 4=61-80%, 3=41-60%, 2=21-40%, 1=0-20% damage
Protocol: as §1

[8] = tested on: Amaranthus palmeri (AMAPA); assay: Post-emergence Test (Table B2), AMAPA; design: key: five-point scale: 5=81-100%, 4=61-80%, 3=41-60%, 2=21-40%, 1=0-20% damage
Protocol: as §1

[9] = tested on: Zea mays (ZEAMX); assay: Post-emergence Test (Table B2), ZEAMX; design: key: 5-point damage scale: 5=81-100%, 4=61-80%, 3=41-60%, 2=21-40%, 1=0-20%
Protocol: as §1

CCn1c(Cc2ccc(C#N)c(F)n2)cc(=O)c(C(=O)O)c1-c1ccc(Cl)c(Cl)c1 [Compound 112, 6-[(5-cyano-6-fluoro-2-pyridyl)methyl]-2-(3,4-dichlorophenyl)-1-ethyl-4-oxo-pyridine-3-carboxylic acid]
0: Pre-emergence Test, percentage damage caused to the plant (five-point scale), ZEAMX ([1]; Rate 62.5 g/Ha) | Pre-emergence Test, percentage damage caused to the plant (five-point scale), AMARE ([2]; Rate 62.5 g/Ha) | Pre-emergence Test, percentage damage caused to the plant (five-point scale), ECHCG ([3]; Rate 62.5 g/Ha) | Pre-emergence Test, percentage damage caused to the plant (five-point scale), AMAPA ([4]; Rate 62.5 g/Ha) | Pre-emergence Test, percentage damage caused to the plant (five-point scale), IPOHE ([5]; Rate 62.5 g/Ha)

CCn1c(Cc2cc(=O)[nH]cn2)cc(=O)c(C(=O)O)c1-c1ccc(Cl)c(Cl)c1 [Compound 45, 2-(3,4-dichlorophenyl)-1-ethyl-4-oxo-6-[(6-oxo-1H-pyrimidin-4-yl)methyl]pyridine-3-carboxylic acid]
0: Pre-emergence Test, percentage damage caused to the plant (five-point scale), ZEAMX ([1]; Rate 250 g/Ha) | Pre-emergence Test, percentage damage caused to the plant (five-point scale), AMARE ([2]; Rate 250 g/Ha) | Pre-emergence Test, percentage damage caused to the plant (five-point scale), ECHCG ([3]; Rate 250 g/Ha) | Pre-emergence Test, percentage damage caused to the plant (five-point scale), AMAPA ([4]; Rate 250 g/Ha) | percentage damage caused to the plant, ECHCG ([6]; rate 250 g/Ha)

CCn1c(Cc2ccc(C)c(C#N)n2)cc(=O)c(C(=O)O)c1-c1ccc(Cl)c(Cl)c1 [Compound 113, 6-[(6-cyano-5-methyl-2-pyridyl)methyl]-2-(3,4-dichlorophenyl)-1-ethyl-4-oxo-pyridine-3-carboxylic acid]
0: Pre-emergence Test, percentage damage caused to the plant (five-point scale), ZEAMX ([1]; Rate 250 g/Ha) | Pre-emergence Test, percentage damage caused to the plant (five-point scale), AMARE ([2]; Rate 250 g/Ha) | percentage damage caused to the plant, AMARE ([7]; rate 250 g/Ha) | percentage damage caused to the plant, AMAPA ([8]; rate 250 g/Ha) | Pre-emergence Test, percentage damage caused to the plant (five-point scale), AMAPA ([4]; Rate 250 g/Ha)

CCn1c(Cc2ccc(OC(F)(F)F)cc2)cc(=O)c(C(=O)O)c1-c1ccc(Cl)c(Cl)c1 [Compound 26, 2-(3,4-dichlorophenyl)-1-ethyl-4-oxo-6-[[4-(trifluoromethoxy)phe-nyl]methyl]pyridine-3-carboxylic acid]
0: percentage damage caused to the plant, ZEAMX ([9]; rate 1000 g/Ha) | percentage damage caused to the plant, ECHCG ([6]; rate 1000 g/Ha)

CCn1c(Cc2cnc(C3CC3)nc2)cc(=O)c(C(=O)O)c1-c1ccc(Cl)c(Cl)c1 [Compound 151, 6-[(2-cyclopropylpyrimidin-5-yl)methyl]-2-(3,4-dichlorophenyl)-1-ethyl-4-oxo-pyridine-3-carboxylic acid]
0: Pre-emergence Test, percentage damage caused to the plant (five-point scale), ZEAMX ([1]; Rate 250 g/Ha) | percentage damage caused to the plant, AMAPA ([8]; rate 250 g/Ha) | Pre-emergence Test, percentage damage caused to the plant (five-point scale), ECHCG ([3]; Rate 250 g/Ha) | percentage damage caused to the plant, ZEAMX ([9]; rate 250 g/Ha) | Pre-emergence Test, percentage damage caused to the plant (five-point scale), IPOHE ([5]; Rate 250 g/Ha)

CCn1c(Cc2ccc(S(C)(=O)=O)cc2)cc(=O)c(C(=O)O)c1-c1ccc(Cl)c(Cl)c1 [Compound 72, 2-(3,4-dichlorophenyl)-1-ethyl-6-[(4-methylsulfonylphenyl)methyl]-4-oxo-pyridine-3-carboxylic acid]
0: Pre-emergence Test, percentage damage caused to the plant (five-point scale), ECHCG ([3]; Rate 250 g/Ha) | percentage damage caused to the plant, ZEAMX ([9]; rate 250 g/Ha) | Pre-emergence Test, percentage damage caused to the plant (five-point scale), IPOHE ([5]; Rate 250 g/Ha) | percentage damage caused to the plant, ECHCG ([6]; rate 250 g/Ha)

CCn1c(Cc2nc(OC)cc(OC)n2)cc(=O)c(C(=O)O)c1-c1ccc(Cl)c(Cl)c1 [Compound 126, 2-(3,4-dichlorophenyl)-6-[(4,6-dimethoxypyrimidin-2-yl)methyl]-1-ethyl-4-oxo-pyridine-3-carboxylic acid]
0: Pre-emergence Test, percentage damage caused to the plant (five-point scale), ZEAMX ([1]; Rate 250 g/Ha) | percentage damage caused to the plant, AMARE ([7]; rate 250 g/Ha) | percentage damage caused to the plant, AMAPA ([8]; rate 250 g/Ha)

CCn1c(Cc2ccc(F)c(Cl)c2)cc(=O)c(C(=O)O)c1-c1ccc(Cl)c(Cl)c1 [Compound 75, 6-[(3-chloro-4-fluoro-phenyl)methyl]-2-(3,4-dichlorophenyl)-1-ethyl-4-oxo-pyridine-3-carboxylic acid]
0: Pre-emergence Test, percentage damage caused to the plant (five-point scale), ZEAMX ([1]; Rate 1000 g/Ha) | percentage damage caused to the plant, AMARE ([7]; rate 1000 g/Ha) | percentage damage caused to the plant, AMAPA ([8]; rate 1000 g/Ha) | percentage damage caused to the plant, ZEAMX ([9]; rate 1000 g/Ha)

CCn1c(Cc2cc(OC)ccc2F)cc(=O)c(C(=O)O)c1-c1ccc(Cl)c(Cl)c1 [Compound 90, 2-(3,4-dichlorophenyl)-1-ethyl-6-[(2-fluoro-5-methoxy-phenyl)methyl]-4-oxo-pyridine-3-carboxylic acid]
0: Pre-emergence Test, percentage damage caused to the plant (five-point scale), ZEAMX ([1]; Rate 1000 g/Ha) | Pre-emergence Test, percentage damage caused to the plant (five-point scale), AMARE ([2]; Rate 1000 g/Ha) | Pre-emergence Test, percentage damage caused to the plant (five-point scale), AMAPA ([4]; Rate 1000 g/Ha) | percentage damage caused to the plant, ZEAMX ([9]; rate 1000 g/Ha) | percentage damage caused to the plant, ECHCG ([6]; rate 1000 g/Ha)

CCn1c(Cc2ccc(C(=O)OC)cn2)cc(=O)c(C(=O)O)c1-c1ccc(Cl)c(Cl)c1 [Compound 46, 2-(3,4-dichlorophenyl)-1-ethyl-6-[(5-methoxycarbonyl-2-pyridyl)methyl]-4-oxo-pyridine-3-carboxylic acid]
0: Pre-emergence Test, percentage damage caused to the plant (five-point scale), ZEAMX ([1]; Rate 250 g/Ha) | percentage damage caused to the plant, ECHCG ([6]; rate 250 g/Ha)

CCn1c(Cc2ccnc(C(F)(F)F)c2)cc(=O)c(C(=O)O)c1-c1ccc(Cl)c(Cl)c1 [Compound 21, 2-(3,4-dichlorophenyl)-1-ethyl-4-oxo-6-[[2-(trifluoromethyl)-4-pyridyl]methyl]pyridine-3-carboxylic acid]
0: percentage damage caused to the plant, AMARE ([7]; rate 250 g/Ha) | percentage damage caused to the plant, AMAPA ([8]; rate 250 g/Ha)

CCn1c(Cc2ccc(OC)nc2)cc(=O)c(C(=O)O)c1-c1ccc(Cl)c(Cl)c1 [Compound 40, 2-(3,4-dichlorophenyl)-1-ethyl-6-[(6-methoxy-3-pyridyl)methyl]-4-oxo-pyridine-3-carboxylic acid]
0: Pre-emergence Test, percentage damage caused to the plant (five-point scale), ZEAMX ([1]; Rate 250 g/Ha) | Pre-emergence Test, percentage damage caused to the plant (five-point scale), ECHCG ([3]; Rate 250 g/Ha) | Pre-emergence Test, percentage damage caused to the plant (five-point scale), IPOHE ([5]; Rate 250 g/Ha) | percentage damage caused to the plant, ECHCG ([6]; rate 250 g/Ha)

CCn1c(Cc2ccc(OC)c(Cl)c2)cc(=O)c(C(=O)O)c1-c1ccc(Cl)c(Cl)c1 [Compound 86, 6-[(3-chloro-4-methoxy-phenyl)methyl]-2-(3,4-dichlorophenyl)-1-ethyl-4-oxo-pyridine-3-carboxylic acid]
0: Pre-emergence Test, percentage damage caused to the plant (five-point scale), ZEAMX ([1]; Rate 250 g/Ha) | percentage damage caused to the plant, AMARE ([7]; rate 250 g/Ha) | percentage damage caused to the plant, AMAPA ([8]; rate 250 g/Ha) | Pre-emergence Test, percentage damage caused to the plant (five-point scale), AMAPA ([4]; Rate 250 g/Ha) | Pre-emergence Test, percentage damage caused to the plant (five-point scale), IPOHE ([5]; Rate 250 g/Ha)

CCn1c(Cc2ccc(C(F)(F)F)cc2)cc(=O)c(C(=O)O)c1-c1ccc(Cl)c(Cl)c1 [Compound 6, 2-(3,4-dichlorophenyl)-1-ethyl-4-oxo-6-[[4-(trifluoromethyl)phenyl]methyl]pyridine-3-carboxylic acid]
0: Pre-emergence Test, percentage damage caused to the plant (five-point scale), ZEAMX ([1]; Rate 1000 g/Ha) | Pre-emergence Test, percentage damage caused to the plant (five-point scale), ECHCG ([3]; Rate 1000 g/Ha) | Pre-emergence Test, percentage damage caused to the plant (five-point scale), IPOHE ([5]; Rate 1000 g/Ha)

CCn1c(Cc2ccccc2)cc(=O)c(C(=O)O)c1-c1ccc(Cl)c(Cl)c1 [Compound 3, 6-benzyl-2-(3,4-dichlorophenyl)-1-ethyl-4-oxo-pyridine-3-carboxylic acid]
0: Pre-emergence Test, percentage damage caused to the plant (five-point scale), ZEAMX ([1]; Rate 1000 g/Ha) | percentage damage caused to the plant, AMARE ([7]; rate 1000 g/Ha) | Pre-emergence Test, percentage damage caused to the plant (five-point scale), ECHCG ([3]; Rate 1000 g/Ha) | Pre-emergence Test, percentage damage caused to the plant (five-point scale), IPOHE ([5]; Rate 1000 g/Ha)

CCn1c(Cc2nc(C(=O)OC)co2)cc(=O)c(C(=O)O)c1-c1ccc(Cl)c(Cl)c1 [Compound 148, 2-(3,4-dichlorophenyl)-1-ethyl-6-[(4-methoxycarbonyloxazol-2-yl)methyl]-4-oxo-pyridine-3-carboxylic acid]
0: Pre-emergence Test, percentage damage caused to the plant (five-point scale), ZEAMX ([1]; Rate 250 g/Ha) | percentage damage caused to the plant, AMAPA ([8]; rate 250 g/Ha) | Pre-emergence Test, percentage damage caused to the plant (five-point scale), ECHCG ([3]; Rate 250 g/Ha) | percentage damage caused to the plant, ZEAMX ([9]; rate 250 g/Ha) | Pre-emergence Test, percentage damage caused to the plant (five-point scale), IPOHE ([5]; Rate 250 g/Ha)

CCn1c(Cc2cncc(Cl)n2)cc(=O)c(C(=O)O)c1-c1ccc(Cl)c(Cl)c1 [Compound 43, 6-[(6-chloropyrazin-2-yl)methyl]-2-(3,4-dichlorophenyl)-1-ethyl-4-oxo-pyridine-3-carboxylic acid]
0: Pre-emergence Test, percentage damage caused to the plant (five-point scale), ZEAMX ([1]; Rate 250 g/Ha) | percentage damage caused to the plant, AMAPA ([8]; rate 250 g/Ha) | Pre-emergence Test, percentage damage caused to the plant (five-point scale), AMAPA ([4]; Rate 250 g/Ha)

CCn1c(Cc2cccc(C(C)=O)n2)cc(=O)c(C(=O)O)c1-c1ccc(Cl)c(Cl)c1 [Compound 116, 6-[(6-acetyl-2-pyridyl)methyl]-2-(3,4-dichlorophenyl)-1-ethyl-4-oxo-pyridine-3-carboxylic acid]
0: percentage damage caused to the plant, AMAPA ([8]; rate 250 g/Ha) | Pre-emergence Test, percentage damage caused to the plant (five-point scale), IPOHE ([5]; Rate 250 g/Ha)
